# Test system: breast cancer cell lines MCF-7, SK-BR-3, T47D
# Experiment: Selectivity towards all breast cancer cell lines tested (SRB)
# Type: cell-based, human
# Conditions: IC50 BALB/3T3/IC50 of MCF-7, SK-BR-3, T47D
# Protocol: The selective effect of a drug can be expressed by the selectivity index (SI), which is determined by comparing the cytotoxic activity of each compound against each cancer cell line with the activity against a normal cell line. The SI was calculated as the IC50 ratio for a normal cell line (SIA—HLMEC; SIB—BALB/3T3) to the IC50 value for the corresponding tumor cell line using the following equation:(1) SI=IC50 for normal cell line/IC50 for cancerous cell line […]
# The details of this technique were described by Skehan et al.. […] The unbound dye was removed by washing the plates five times with 1% acetic acid, whereas the stain bound to the cells was extracted with 150 µL of 10 mM unbuffered Tris base for determination of the optical density at a 540 nm wavelength in a computer-interfaced, 96-well microtiter plate reader–Multiskan FC photometer (Thermo Scientific, Waltham, MA, USA). The background optical density was measured in the wells filled with culture medium, without the cells. […]
smiles,measurement,value
"COc1cc(O)c(CC=C(C)C)c2c1C(=O)/C(=C/c1ccc(O)cc1)O2 [compound 2, (Z)-6,4′-dihydroxy-4-methoxy-7-prenylaurone]","selectivity index SIB, range over breast cancer cell lines",3.93–5.50

# Reference: publication PMC10138577, “Prenylated Flavonoids with Selective Toxicity against Human Cancers” (International Journal of Molecular Sciences, 2023)
